Molecular target: human NaV 1.8 (Homo sapiens, UniProt Q9Y5Y9)
Test: E-VIPR assay detecting and measuring NaV inhibition properties
Type: cell-based
Details: HEK cells expressing truncated human NaV 1.8; no human serum; read-out: IC50 in the E-VIPR Assay
Outline: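 Membrane potential was followed by coumarin/oxonol FRET during electrical field stimulation of matrigel-seeded HEK cells carrying truncated human NaV1.8 plus KIR2.1. Dosing used 11 points, 3-fold steps, top 300 nM final, 0.625% DMSO, with or without 25% human serum.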

Sequence of human NaV 1.8 (Q9Y5Y9 126-399 limits assumed): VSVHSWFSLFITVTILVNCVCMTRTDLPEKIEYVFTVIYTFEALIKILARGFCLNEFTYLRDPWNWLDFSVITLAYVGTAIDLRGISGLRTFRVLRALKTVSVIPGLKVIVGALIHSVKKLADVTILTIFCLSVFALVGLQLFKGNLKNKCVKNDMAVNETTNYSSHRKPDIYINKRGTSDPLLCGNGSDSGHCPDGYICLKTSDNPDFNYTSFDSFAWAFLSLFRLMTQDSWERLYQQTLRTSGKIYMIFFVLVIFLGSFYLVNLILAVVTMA
Sequence of human NaV 1.8 (Q9Y5Y9 660-890 limits assumed): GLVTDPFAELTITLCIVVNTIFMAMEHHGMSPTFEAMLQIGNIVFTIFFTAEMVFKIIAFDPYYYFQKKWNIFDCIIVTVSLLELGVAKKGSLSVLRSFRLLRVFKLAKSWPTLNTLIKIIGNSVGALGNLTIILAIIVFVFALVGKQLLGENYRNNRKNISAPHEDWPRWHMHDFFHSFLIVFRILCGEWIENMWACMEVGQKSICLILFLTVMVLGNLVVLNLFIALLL
Sequence of human NaV 1.8 (Q9Y5Y9 1148-1722 limits assumed): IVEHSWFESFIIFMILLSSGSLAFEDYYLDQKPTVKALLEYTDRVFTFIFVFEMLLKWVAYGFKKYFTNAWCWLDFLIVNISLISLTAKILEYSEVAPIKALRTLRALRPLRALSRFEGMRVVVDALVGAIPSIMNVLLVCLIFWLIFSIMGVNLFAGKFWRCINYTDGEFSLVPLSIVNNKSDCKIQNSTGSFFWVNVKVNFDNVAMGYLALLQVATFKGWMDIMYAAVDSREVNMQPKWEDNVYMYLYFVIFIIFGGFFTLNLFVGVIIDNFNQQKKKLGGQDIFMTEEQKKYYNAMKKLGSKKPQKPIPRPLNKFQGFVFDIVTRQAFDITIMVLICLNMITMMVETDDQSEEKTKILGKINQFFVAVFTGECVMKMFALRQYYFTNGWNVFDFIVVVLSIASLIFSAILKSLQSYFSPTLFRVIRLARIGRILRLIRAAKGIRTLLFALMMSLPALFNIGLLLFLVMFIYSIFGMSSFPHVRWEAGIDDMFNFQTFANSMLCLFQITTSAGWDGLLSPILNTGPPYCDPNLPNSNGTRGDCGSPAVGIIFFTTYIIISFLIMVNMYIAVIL

## COc1c([C@H]2[C@H](C(=O)Nc3ccnc(N(C)CCO)c3)O[C@@](C)(C(F)(F)F)[C@H]2C)ccc(F)c1F [Compound 521, (2R,3S,4S,5R)-3-(3,4-difluoro-2-methoxy-phenyl)-N-[2-[2-hydroxyethyl(methyl)amino]-4-pyridyl]-4,5-dimethyl-5-(trifluoromethyl)tetrahydrofuran-2-carboxamide]
  IC50: 10 to 100 nM

## COc1c([C@H]2[C@H](C(=O)Nc3ccc(SC)nc3)O[C@@](C)(C(F)(F)F)[C@H]2C)ccc(F)c1F [Compound 324, (2R,3S,4S,5R)-3-(3,4-difluoro-2-methoxyphenyl)-4,5-dimethyl-N-(6-(methylthio)pyridin-3-yl)-5-(trifluoromethyl)-tetrahydrofuran-2-carboxamide]
  IC50: 10 to 100 nM

## COc1c([C@H]2[C@H](C(=O)NC3(c4ccccc4)COC3)O[C@@](C)(C(F)(F)F)[C@H]2C)ccc(F)c1F [Compound 306, (2R,3S,4S,5R)-3-(3,4-difluoro-2-methoxyphenyl)-4,5-dimethyl-N-(3-phenyloxetan-3-yl)-5-(trifluoromethyl)tetrahydrofuran-2-carboxamide]
  IC50: ≥ 1000 nM

## COc1c([C@H]2[C@H](C(=O)Nc3ccc(C(N)=O)nc3)O[C@@](C)(C(F)(F)F)[C@H]2C)ccc(F)c1F [Compound 1, 5-((2R,3S,4S,5R)-3-(3,4-difluoro-2-methoxyphenyl)-4,5-dimethyl-5-(trifluoromethyl)tetrahydrofuran-2-carboxamido)picolinamide]
  IC50: < 10 nM

## COc1c([C@H]2[C@H](C(=O)NCCc3c(C)n[nH]c3C)O[C@@](C)(C(F)(F)F)[C@H]2C)ccc(F)c1F [Compound 285, (2R,3S,4S,5R)-3-(3,4-difluoro-2-methoxyphenyl)-N-(2-(3,5-dimethyl-1H-pyrazol-4-yl)ethyl)-4,5-dimethyl-5-(trifluoromethyl)tetrahydrofuran-2-carboxamide]
  IC50: ≥ 1000 nM

## C[C@@H]1[C@H](c2ccc(F)c(F)c2OC(F)F)[C@@H](C(=O)Nc2ccn3nnnc3c2)O[C@]1(C)C(F)(F)F (single isomer, unassigned) [Compound 79]
  IC50: 100 to 1000 nM

## CNCC(=O)Nc1cc(NC(=O)[C@@H]2O[C@@](C)(C(F)(F)F)[C@@H](C)[C@H]2c2ccc(F)c(F)c2OC)ccn1 [Compound 488]
  IC50: 10 to 100 nM

## COc1c([C@H]2[C@H](C(=O)Nc3ccnc(CO)n3)O[C@@](C)(C(F)(F)F)[C@H]2C)ccc(F)c1F [Compound 381, (2R,3S,4S,5R)-3-(3,4-difluoro-2-methoxyphenyl)-N-(2-(hydroxymethyl)pyrimidin-4-yl)-4,5-dimethyl-5-(trifluoromethyl)tetrahydrofuran-2-carboxamide]
  IC50: 10 to 100 nM

## COc1c([C@H]2[C@H](C(=O)Nc3ccnc(C(CO)N(C)C)c3)O[C@@](C)(C(F)(F)F)[C@H]2C)ccc(F)c1F (single isomer, unassigned) [Compound 230, rel-(2R*,3S*,4S*,5R*)-3-(3,4-difluoro-2-methoxyphenyl)-N-(2-(-1-(dimethylamino)-2-hydroxyethyl)pyridin-4-yl)-4,5-dimethyl-5-(trifluoromethyl)tetrahydrofuran-2-carboxamide]
  IC50: < 10 nM

## COc1c([C@H]2[C@H](C(=O)Nc3cc(O[C@@H]4COC[C@@H]4O)ncn3)O[C@@](C)(C(F)(F)F)[C@H]2C)ccc(F)c1F (relative stereo) [Compound 238, (2R*,3S*,4S*,5R*)-3-(3,4-difluoro-2-methoxyphenyl)-N-(6-((cis-4-hydroxytetrahydrofuran-3-yl)oxy)pyrimidin-4-yl)-4,5-dimethyl-5-(trifluoromethyl)tetrahydrofuran-2-carboxamide]
  IC50: 10 to 100 nM

## COc1c(C2C(C(=O)Nc3cccnc3)OC(C)(C(F)(F)F)C2C)ccc(F)c1F (single isomer, unassigned) [Compound 30, 3-(3,4-difluoro-2-methoxy-phenyl)-4,5-dimethyl-N-(3-pyridyl)-5-(trifluoromethyl)tetrahydrofuran-2-carboxamide]
  IC50: < 10 nM

## Cc1nocc1NC(=O)[C@@H]1O[C@@](C)(C(F)(F)F)[C@@H](C)[C@H]1c1ccc(F)c(F)c1OCCN[C@@H]1CCOC1 [Compound 632, (2R,3S,4S,5R)-3-(3,4-difluoro-2-(2-(((R)-tetrahydrofuran-3-yl)amino)ethoxy)phenyl)-4,5-dimethyl-N-(3-methylisoxazol-4-yl)-5-(trifluoromethyl)tetrahydrofuran-2-carboxamide]
  IC50: 10 to 100 nM

## COc1c([C@@H]2[C@@H](C(=O)Nc3ccnc(C(=O)O)c3)O[C@](C)(C(F)(F)F)[C@@H]2C)ccc(F)c1C(F)F (single isomer, unassigned) [Compound 175]
  IC50: 100 to 1000 nM

## COc1c([C@H]2[C@H](C(=O)NC3CCN(C(C)=O)CC3)O[C@@](C)(C(F)(F)F)[C@H]2C)ccc(F)c1F [Compound 273, (2R,3S,4S,5R)-N-(1-acetylpiperidin-4-yl)-3-(3,4-difluoro-2-methoxyphenyl)-4,5-dimethyl-5-(trifluoromethyl)tetrahydrofuran-2-carboxamide]
  IC50: ≥ 1000 nM

## COc1c([C@H]2[C@H](C(=O)NC3CCN(C(N)=O)CC3)O[C@@](C)(C(F)(F)F)[C@H]2C)ccc(F)c1F [Compound 303, 4-((2R,3S,4S,5R)-3-(3,4-difluoro-2-methoxyphenyl)-4,5-dimethyl-5-(trifluoromethyl)tetrahydrofuran-2-carboxamido)piperidine-1-carboxamide]
  IC50: ≥ 1000 nM

## COc1c([C@H]2[C@H](C(=O)Nc3ccnc(CC(C)(C)O)c3)O[C@@](C)(C(F)(F)F)[C@H]2C)ccc(F)c1F [Compound 405, (2R,3S,4S,5R)-3-(3,4-difluoro-2-methoxy-phenyl)-N-[2-(2-hydroxy-2-methyl-propyl)-4-pyridyl]-4,5-dimethyl-5-(trifluoromethyl)tetrahydrofuran-2-carboxamide]
  IC50: 10 to 100 nM

## COc1c([C@H]2[C@H](C(=O)Nc3ccnc(C4(N)COC4)n3)O[C@@](C)(C(F)(F)F)[C@H]2C)ccc(F)c1F [Compound 310, (2R,3S,4S,5R)-N-[2-(3-aminooxetan-3-yl)pyrimidin-4-yl]-3-(3,4-difluoro-2-methoxy-phenyl)-4,5-dimethyl-5-(trifluoromethyl)tetrahydrofuran-2-carboxamide]
  IC50: 10 to 100 nM

## COc1c([C@H]2[C@H](C(=O)NC3CCCCNC3=O)O[C@@](C)(C(F)(F)F)[C@H]2C)ccc(F)c1F (stereo partly drawn) [Compound 299, (2R,3S,4S,5R)-3-(3,4-difluoro-2-methoxyphenyl)-4,5-dimethyl-N-(2-oxoazepan-3-yl)-5-(trifluoromethyl)tetrahydrofuran-2-carboxamide]
  IC50: ≥ 1000 nM

## COc1c([C@H]2[C@H](C(=O)Nc3ccc(NC(C)=O)nc3)O[C@@](C)(C(F)(F)F)[C@H]2C)ccc(F)c1F [Compound 525, (2R,3S,4S,5R)-N-(6-acetamido-3-pyridyl)-3-(3,4-difluoro-2-methoxy-phenyl)-4,5-dimethyl-5-(trifluoromethyl)tetrahydrofuran-2-carboxamide]
  IC50: 10 to 100 nM

## COc1c([C@H]2[C@H](C(=O)Nc3cc(C(O)CN(C)C)ncc3F)O[C@@](C)(C(F)(F)F)[C@H]2C)ccc(F)c1F (single isomer, unassigned) [Compound 370, rel-(2R*,3S*,4S*,5R*)-3-(3,4-difluoro-2-methoxyphenyl)-N-(2-(2-(dimethylamino)-1-hydroxyethyl)-5-fluoropyridin-4-yl)-4,5-dimethyl-5-(trifluoromethyl)tetrahydrofuran-2-carboxamide]
  IC50: < 10 nM

## COc1c([C@H]2[C@H](C(=O)Nc3cnc4c(c3)OCC4O)O[C@@](C)(C(F)(F)F)[C@H]2C)ccc(F)c1F (single isomer, unassigned) [Compound 409, rel-(2R*,3S*,4S*,5R*)-3-(3,4-difluoro-2-methoxyphenyl)-N-(3-hydroxy-2,3-dihydrofuro[3,2-b]pyridin-6-yl)-4,5-dimethyl-5-(trifluoromethyl)-tetrahydrofuran-2-carboxamide]
  IC50: 100 to 1000 nM

## COc1c([C@H]2[C@H](C(=O)Nc3ccnc(N4C[C@@H]5CC[C@H](C4=O)N5C)c3)O[C@@](C)(C(F)(F)F)[C@H]2C)ccc(F)c1F (single isomer, unassigned) [Compound 504, rel-(2R*,3S*,4S*,5R*)-3-(3,4-difluoro-2-methoxyphenyl)-4,5-dimethyl-N-(2-((1R,5S)-8-methyl-2-oxo-3,8-diazabicyclo[3.2.1]octan-3-yl)pyridin-4-yl)-5-(trifluoromethyl)tetrahydrofuran-2-carboxamide]
  IC50: 10 to 100 nM

## COc1c([C@H]2[C@H](C(=O)NC(C)c3ccc(C)c(F)c3)O[C@@](C)(C(F)(F)F)[C@H]2C)ccc(F)c1F (stereo partly drawn) [Compound 308, (2R,3S,4S,5R)-3-(3,4-difluoro-2-methoxyphenyl)-N-(1-(3-fluoro-4-methylphenyl)ethyl)-4,5-dimethyl-5-(trifluoromethyl)tetrahydrofuran-2-carboxamide]
  IC50: ≥ 1000 nM

## CC(=O)N(C)c1cc(NC(=O)[C@@H]2O[C@@](C)(C(F)(F)F)[C@@H](C)[C@H]2c2ccc(F)c(F)c2OCCN2CC3(COC3)C2)ccn1 [Compound 637, (2R,3S,4S,5R)-N-[2-[acetyl(methyl)amino]-4-pyridyl]-3-[3,4-difluoro-2-[2-(2-oxa-6-azaspiro[3.3]heptan-6-yl)ethoxy]phenyl]-4,5-dimethyl-5-(trifluoromethyl)tetrahydrofuran-2-carboxamide]
  IC50: 10 to 100 nM

## COc1c(C2C(C(=O)Nc3ccn(C)c(=O)c3)OC(C)(C(F)(F)F)C2C)ccc(F)c1F (single isomer, unassigned) [Compound 28, 3-(3,4-difluoro-2-methoxy-phenyl)-4,5-dimethyl-N-(1-methyl-2-oxo-4-pyridyl)-5-(trifluoromethyl)tetrahydrofuran-2-carboxamide]
  IC50: < 10 nM

## COCC1(CNC(=O)[C@@H]2O[C@@](C)(C(F)(F)F)[C@@H](C)[C@H]2c2ccc(F)c(F)c2OC)CCC1 [Compound 276, (2R,3S,4S,5R)-3-(3,4-difluoro-2-methoxyphenyl)-N-((1-(methoxymethyl)cyclobutyl)methyl)-4,5-dimethyl-5-(trifluoromethyl)tetrahydrofuran-2-carboxamide]
  IC50: ≥ 1000 nM
